Like-named read-outs stand apart in the source and are kept apart here.
Tests used:
[1] = system: uninfected human PBM cells; experiment: Toxicity: growth of mitogen-stimulated uninfected human PBM cells; format: cell-based
Procedure: Mitogen stimulated uninfected human PBM cells (3.8×10^5 cells/ml) were cultured in the presence and absence of drug under similar conditions as those used for the antiviral assay described above. The cells were counted after 6 days using a hemacytometer and the trypan blue exclusion method, as described by Schinazi, et al., (Antimicrobial Agents and Chemotherapy, 22(3), 499 (1982)).

xxBRU HIV-1 = experiment: Anti-HIV activity in PBM cells, virus xxBRU; format: cell-based
HIV-1 (strain LAV) = format: cell-based
Procedure: The ability of nucleosides to inhibit HIV can be measured by various experimental techniques. The technique used herein, and described in detail below, measures the inhibition of viral replication in phytohemaggluinin (PHA) stimulated human peripheral blood mononuclear (PBM) cells infected with HIV-1 (strain LAV). The amount of virus produced is determined by measuring the virus-coded reverse transcriptase enzyme. The amount of enzyme produced is proportional to the amount of virus produced.
Three-day old phytohemagglutinin-stimulated PBM cells (10^6 cells/ml) from hepatitis B and HIV-1 seronegative healthy donors were infected with HIV-1 (strain LAV) at a concentration of about 100 times the 50% tissue culture infections dose (TICD 50) per ml and cultured in the presence and absence of various concentrations of antiviral compounds.
Approximately one hour after infection, the medium, with the compound to be tested (2 times the final concentration in medium) or without compound, was added to the flasks (5 ml; final volume 10 ml). AZT was used as a positive control.
The cells were exposed to the virus (about 2×10^5 dpm/ml, as determined by reverse transcriptase assay) and then placed in a CO2 incubator. HIV-1 (strain LAV) was obtained from the Center for Disease Control, Atlanta, Ga. The methods used for culturing the PBM cells, harvesting the virus and determining the reverse transcriptase activity were those described by McDougal, et al. (J. Immun. Meth. 76, 171-183, 1985) and Spira, et al. (J. Clin. Meth. 25, 97-99, 1987), except that fungizone was not included in the medium (see Schinazi, et al., Antimicrob. Agents Chemother. 32, 1784-1787 (1988); Id., 34:1061-1067 (1990)).
On day 6, the cells and supernatant were tnansferred to a 15 ml tube and centrifuged at about 900 g for 10 minutes. Five ml of supernatant was removed and the virus was concentrated by centrifugation at 40,000 rpm for 30 minutes (Beckman 70.1 Ti rotor). The solubilized virus pellet was processed for determination of the levels of reverse transcriptase. Results are expressed in dpm/ml of sampled supernatant. Virus from smaller volumes of supernatant (1 ml) can also be concentrated by centriguation prior to solubilization and determination of reverse transcriptase levels.
The median effective (EC50) concentration was determined by the median effect-method (Antimicrob. Agents Chemother. 30, 491-498 (1986)). Briefly, the percent inhibition of virus, as determined from measurements of reverse transcriptase, is plotted versus the micromolar concentration of compound.

[2] = system: Cloned M184 HIV-1 (M184V); experiment: Anti-HIV activity in PBM cells infected with cloned M184V HIV-1 (mutation at codon 184 of reverse transcriptase gene); format: cell-based; conditions: for activity against the mutated virus: HIV with mutation at codon 184 in reverse transcriptase gene; for activity against the mutated virus / EC50 / EC90: PBM cells; for FI EC50 (fold increase): EC50 data from cloned virus/EC50 data from xxBRU; for FI EC90 (fold increase): EC90 M184V versus xxBRU; for EC50 / EC90: Virus M184V
CEM cells = experiment: Toxicity in CEM cells; format: cell-based, human
Text: Some of the 1,3-oxaselenolanyl nucleosides described herein can be used to treat abnormal cellular proliferation, including tumors and cancer. The extent of antiproliferative activity can be easily assessed by assaying the compound according to the procedure below in a CEM cell or other tumor or proliferative cell line assay. CEM cells are human lymphoma cells (a T-lymphoblastoid cell line that can be obtained from ATCC, Rockville, Md.). The toxicity of a compound to CEM cells provides useful information regarding the activity of the compound against tumors. The toxicity is measured as IC50 micromolar).
Drug solutions, including cycloheximide as a positive control, are plated in triplicate in 50 μl growth medium at 2 times the final concentration and allowed to equilibrate at 37° C. in a 5% CO2 incubator. […] Absorbance is read at 570 nm, blanking on the medium-only wells using a Biotek Biokinetics plate read (Biotek, Winooski, Vt.). Average percent inhibition of growth compared to the untreated control is calculated. IC50, IC90, slope and r value are calculated by the method of Chou and Talaly. Chou T-C, Talalay P. Quantitative analysis of dose-effect relationships: The combined effects of multiple drugs or enzyme inhibitors. […]

Vero cells = experiment: Toxicity in Vero cells; format: cell-based
HIV = conditions: comparison with AZT; cited from earlier work
[3] = Table 5, cytotoxicity in PBM cells, read-out: IC50 PBM
[4] = Table 5, anti-HIV activity in PBM cells
[5] = Table 5, anti-HIV activity in PBM cells, read-out: EC50
[6] = mitogen-stimulated uninfected human PBM cells, read-out: Toxicity (IC50 μM) PMB
[7] = PBM cells, HIV-1 strain LAV, estimated 10% error factor, read-out: Anti-HIV Activity in PBM Cells (EC50 μM)

With `Nc1ccn([C@H]2C[Se][C@@H](CO)O2)c(=O)n1` [(−)-β-Se-ddC, (−)-(2S,5R)-β-L-2′,3′-dideoxy-3′-seleno-cytidine] as the compound, how does the IC50 [1, 3] read?
Its IC50 is over 100 µM.

And the EC50 (xxBRU HIV-1)?
Its EC50 is 110 nM.

And the EC90 (xxBRU HIV-1)?
The EC90 was 0.95 µM.

And the EC90 (HIV-1 (strain LAV); [4])?
The EC90 was 5.42 µM.

What about the EC50 (HIV-1 (strain LAV); [5]) of the same compound?
Its EC50 is 0.88 µM.

What about the “activity against the mutated virus” value [2] of the same compound?
Its value is “significant activity”.

Which IC50 [1, 3] does the source give for `Nc1nc(=O)n(C2C[Se]C(CO)O2)cc1F` [(−)-β-Se-FddC, 1-β-L-(2′-Hydroxymethyl-1′,3′-oxaselenolane-5′-yl)-5-fluorocytosine] here?
Its IC50 is over 100 µM.

And the EC90 (HIV-1 (strain LAV); [4])?
The EC90 was 1.05 µM.

What about the EC50 (HIV-1 (strain LAV); [5]) of the same compound?
Its EC50 is 0.21 µM.

And the “FI EC50 (fold increase)” value [2]?
The value was over 455.

And the “FI EC90 (fold increase)” value [2]?
The value was over 53.

And the EC50 [2]?
The EC50 was over 50 µM.

What about the EC90 [2] of the same compound?
Its EC90 is over 50 µM.

Which results are given for `Nc1ccn(C2C[Se]C(CO)O2)c(=O)n1` (centres unmarked)?
IC50 [1, 6]: > 100 µM; EC50 (HIV-1 (strain LAV); [7]): 0.88 µM; IC50 (CEM cells): > 100 µM; IC50 (Vero cells): > 100 µM

Which results are given for `Nc1nc(=O)n(C2C[Se]C(CO)O2)cc1F` [(+)-β-Se-FddC, 1-β-D-(2′-hydroxymethyl-1′,3′-oxaselenolane-5′-yl)-5-fluorocytosine]?
IC50 [1, 3]: > 100 µM; EC90 (HIV-1 (strain LAV); [4]): 164 µM; EC50 (HIV-1 (strain LAV); [5]): 41.9 µM; FI EC50 (fold increase) [2]: >6; FI EC90 (fold increase) [2]: >1; EC50 [2]: > 50 µM; EC90 [2]: > 50 µM

For `Nc1nc(=O)n(C2C[Se]C(CO)O2)cc1F` (centres unmarked) [Compound 5-F-Cytosine], which IC50 [1, 6] is on record?
The IC50 was over 100 µM.

What about the EC50 (HIV-1 (strain LAV); [7]) of the same compound?
Its EC50 is 0.07 µM.

And the IC50 (CEM cells)?
Its IC50 is over 100 µM.

And the IC50 (Vero cells)?
The IC50 was over 100 µM.

Which results are given for `Nc1ccn(C2C[Se]C(CO)O2)c(=O)n1` (racemic) [(±)-β-Se-ddC]?
IC50 [1, 3]: > 100 µM; EC50 (xxBRU HIV-1): 1840 nM; EC90 (xxBRU HIV-1): 6.9 µM; EC90 (HIV-1 (strain LAV); [4]): 209 µM; EC50 (HIV-1 (strain LAV); [5]): 2.69 µM; activity against the mutated virus [2]: significant activity

With `Nc1ccn([C@@H]2C[Se][C@H](CO)O2)c(=O)n1` [(+)-β-Se-ddC, (+)-(2R,5S)-β-D-2′,3′-dideoxy-3′-seleno-cytidine] as the compound, how does the IC50 [1, 3] read?
The IC50 was over 100 µM.

What about the EC50 (xxBRU HIV-1) of the same compound?
The EC50 was 8620 nM.

What about the EC90 (xxBRU HIV-1) of the same compound?
The EC90 was 35.1 µM.

What about the EC90 (HIV-1 (strain LAV); [4]) of the same compound?
The EC90 was 677 µM.

What about the EC50 (HIV-1 (strain LAV); [5]) of the same compound?
The EC50 was 3.39 µM.

With `Nc1nc(=O)n(C2C[Se]C(CO)O2)cc1F` (racemic) [(±)-β-Se-FddC, 2-hydroxymethyl-4-(N-5′-flurocytosin-1′-yl)-1,3-oxaselenolane] as the compound, how does the IC50 [1, 3] read?
The IC50 was over 100 µM.

What about the EC90 (HIV-1 (strain LAV); [4]) of the same compound?
Its EC90 is 16.4 µM.

What about the EC50 (HIV-1 (strain LAV); [5]) of the same compound?
Its EC50 is 5.55 µM.

What about the “FI EC50 (fold increase)” value [2] of the same compound?
Its value is 59.

And the “FI EC90 (fold increase)” value [2]?
Its value is 49.

And the EC50 [2]?
The EC50 was 108 µM.

And the EC90 [2]?
The EC90 was 337 µM.

For `Nc1ccn(C2CSC(CO)O2)c(=O)n1` (racemic) [BCH-189, 2-hydroxymethyl-5-(cytosin-1-yl)-1,3-oxathiolane], which “activity against HIV relative to AZT” value (HIV) is on record?
The value was “approximately the same activity against HIV as AZT”.
